{
  "source": "ChEMBL document CHEMBL3739307",
  "about": "“Synthesis and multiparametric evaluation of thiadiazoles and oxadiazoles as diacylglycerol acyltransferase type 1 inhibitors” (Bioorg Med Chem Lett, 2016)",
  "key": {"Liver microsome [1]": {"tested_on": "Liver microsome", "test": "Metabolic stability in rat liver microsomes", "format": "ADME"}, "Liver microsome [2]": {"tested_on": "Liver microsome", "test": "Metabolic stability in human liver microsomes", "format": "ADME"}, "[3]": {"test": "Metabolic stability in mouse liver microsomes", "format": "ADME"}, "[4]": {"test": "Permeability across human Caco2 cells", "format": "ADME, cell-based", "settings": "Caco-2, read-out: permeability"}, "[5]": {"test": "Oral bioavailability in rat", "format": "ADME, organism-based", "settings": "in vivo"}, "[6]": {"test": "Cmax in rat plasma at 10 mg/kg, po administered as single dose", "format": "ADME, organism-based", "design": "dose 10 mg/kg, route oral"}, "[7]": {"test": "Cmax in rat heart at 10 mg/kg, po administered as single dose", "format": "ADME, organism-based", "design": "dose 10 mg/kg, route oral"}, "[8]": {"test": "Cmax in rat brain at 10 mg/kg, po administered as single dose", "format": "ADME, organism-based", "design": "dose 10 mg/kg, route oral"}, "[9]": {"test": "Cmax in rat small intestine at 10 mg/kg, po administered as single dose", "format": "ADME, organism-based", "design": "dose 10 mg/kg, route oral"}, "[10]": {"test": "Tmax in rat at 10 mg/kg, po administered as single dose", "format": "ADME, organism-based", "settings": "in vivo"}, "[11]": {"test": "Cmax in rat liver at 10 mg/kg, po administered as single dose", "format": "ADME, organism-based", "design": "dose 10 mg/kg, route oral"}, "[12]": {"test": "Half life in rat plasma at 10 mg/kg, po administered as single dose", "format": "ADME, organism-based"}},
  "data": [
    {"smiles": "O=C(O)C[C@H]1CC[C@H](c2ccc(C(=O)Nc3nnc(Cc4ccccc4)s3)cc2)CC1", "values": [
      {"measurement": "Stability", "setting": "Liver microsome [1]", "value": 11, "unit": "%"},
      {"measurement": "Stability", "setting": "Liver microsome [2]", "value": 0, "unit": "%"},
      {"measurement": "Stability", "setting": "[3]", "value": 5, "unit": "%"}
    ]},
    {"smiles": "O=C(Nc1nnc(NC2CCCC2)s1)c1ccc(O[C@H]2CC[C@@H](C(=O)O)CC2)cc1", "values": [
      {"measurement": "Stability", "setting": "Liver microsome [1]", "value": 4, "unit": "%"},
      {"measurement": "Stability", "setting": "Liver microsome [2]", "value": 2, "unit": "%"},
      {"measurement": "Papp", "setting": "[4]", "value": 0.6, "unit": "×10⁻⁶ cm/s"},
      {"measurement": "Stability", "setting": "[3]", "value": 3, "unit": "%"}
    ]},
    {"smiles": "O=C(Nc1nc(Cc2ccccc2)no1)c1ccc(O[C@H]2CC[C@@H](C(=O)O)CC2)cc1", "values": [
      {"measurement": "Stability", "setting": "Liver microsome [1]", "value": 53, "unit": "%"},
      {"measurement": "Stability", "setting": "Liver microsome [2]", "value": 2, "unit": "%"},
      {"measurement": "Papp", "setting": "[4]", "value": 2.9, "unit": "×10⁻⁶ cm/s"},
      {"measurement": "Stability", "setting": "[3]", "value": 100, "unit": "%"}
    ]},
    {"smiles": "O=C(O)C[C@H]1CC[C@H](c2ccc(C(=O)Nc3nnc(COC4CCCC4)s3)cc2)CC1", "values": [
      {"measurement": "Stability", "setting": "Liver microsome [1]", "value": 0, "unit": "%"},
      {"measurement": "Stability", "setting": "Liver microsome [2]", "value": 3, "unit": "%"},
      {"measurement": "Papp", "setting": "[4]", "value": 10.3, "unit": "×10⁻⁶ cm/s"},
      {"measurement": "Stability", "setting": "[3]", "value": 0, "unit": "%"}
    ]},
    {"smiles": "O=C(Nc1nc(Cc2cc(F)cc(F)c2)no1)c1ccc(O[C@H]2CC[C@@H](C(=O)O)CC2)cc1", "values": [
      {"measurement": "Stability", "setting": "Liver microsome [1]", "value": 61, "unit": "%"},
      {"measurement": "Stability", "setting": "Liver microsome [2]", "value": 1, "unit": "%"},
      {"measurement": "Papp", "setting": "[4]", "value": 0.9, "unit": "×10⁻⁶ cm/s"},
      {"measurement": "Stability", "setting": "[3]", "value": 99, "unit": "%"}
    ]},
    {"smiles": "O=C(Nc1nnc(Cc2cc(F)cc(F)c2)s1)c1ccc(O[C@H]2CC[C@@H](C(=O)O)CC2)cc1", "values": [
      {"measurement": "bioavailability", "setting": "[5]", "value": 4, "unit": "%"},
      {"measurement": "Stability", "setting": "Liver microsome [1]", "value": 9, "unit": "%"},
      {"measurement": "Stability", "setting": "Liver microsome [2]", "value": 1, "unit": "%"},
      {"measurement": "Papp", "setting": "[4]", "value": 2.9, "unit": "×10⁻⁶ cm/s"},
      {"measurement": "Stability", "setting": "[3]", "value": 42, "unit": "%"}
    ]},
    {"smiles": "O=C(Nc1nnc(COC2CCCC2)s1)c1ccc(O[C@H]2CC[C@@H](C(=O)O)CC2)cc1", "values": [
      {"measurement": "Stability", "setting": "Liver microsome [1]", "value": 1, "unit": "%"},
      {"measurement": "Stability", "setting": "Liver microsome [2]", "value": 5, "unit": "%"},
      {"measurement": "Papp", "setting": "[4]", "value": 4.1, "unit": "×10⁻⁶ cm/s"},
      {"measurement": "Stability", "setting": "[3]", "value": 8, "unit": "%"}
    ]},
    {"smiles": "O=C(O)C[C@H]1CC[C@H](c2ccc(C(=O)Nc3nnc(CCC4CCCO4)s3)cc2)CC1", "note": "(stereo not given in full)", "values": [
      {"measurement": "Stability", "setting": "Liver microsome [1]", "value": 3, "unit": "%"},
      {"measurement": "Stability", "setting": "Liver microsome [2]", "value": 9, "unit": "%"},
      {"measurement": "Papp", "setting": "[4]", "value": 7.2, "unit": "×10⁻⁶ cm/s"},
      {"measurement": "Stability", "setting": "[3]", "value": 8, "unit": "%"}
    ]},
    {"smiles": "O=C(Nc1nnc(Nc2ccccc2)s1)c1ccc(O[C@H]2CC[C@@H](C(=O)O)CC2)cc1", "values": [
      {"measurement": "Stability", "setting": "Liver microsome [1]", "value": 4, "unit": "%"},
      {"measurement": "Stability", "setting": "Liver microsome [2]", "value": 11, "unit": "%"},
      {"measurement": "Papp", "setting": "[4]", "value": 0.6, "unit": "×10⁻⁶ cm/s"},
      {"measurement": "Stability", "setting": "[3]", "value": 8, "unit": "%"}
    ]},
    {"smiles": "O=C(Nc1nnc(Cc2ccccc2)s1)c1ccc(O[C@H]2CC[C@@H](C(=O)O)CC2)cc1", "values": [
      {"measurement": "Stability", "setting": "Liver microsome [1]", "value": 22, "unit": "%"},
      {"measurement": "Stability", "setting": "Liver microsome [2]", "value": 3, "unit": "%"},
      {"measurement": "Papp", "setting": "[4]", "value": 1.5, "unit": "×10⁻⁶ cm/s"},
      {"measurement": "Stability", "setting": "[3]", "value": 27, "unit": "%"}
    ]},
    {"smiles": "O=C(Nc1nnc(Cc2ccccc2)s1)c1ccc(O[C@H]2CC[C@@H](C(=O)O)CC2)nc1", "values": [
      {"measurement": "Stability", "setting": "Liver microsome [1]", "value": 37, "unit": "%"},
      {"measurement": "Stability", "setting": "Liver microsome [2]", "value": 1, "unit": "%"},
      {"measurement": "Papp", "setting": "[4]", "value": 1.1, "unit": "×10⁻⁶ cm/s"},
      {"measurement": "Stability", "setting": "[3]", "value": 23, "unit": "%"}
    ]},
    {"smiles": "O=C(Nc1nnc(Cc2cc(F)cc(F)c2)s1)c1ccc(O[C@H]2CC[C@H](C(=O)O)CC2)cc1", "values": [
      {"measurement": "Stability", "setting": "Liver microsome [1]", "value": 8, "unit": "%"},
      {"measurement": "Stability", "setting": "Liver microsome [2]", "value": 1, "unit": "%"},
      {"measurement": "Papp", "setting": "[4]", "value": 3, "unit": "×10⁻⁶ cm/s"},
      {"measurement": "Stability", "setting": "[3]", "value": 9, "unit": "%"}
    ]},
    {"smiles": "O=C(Nc1nnc(Cc2cccc(Cl)c2)s1)c1ccc(O[C@H]2CC[C@@H](C(=O)O)CC2)nc1", "values": [
      {"measurement": "Stability", "setting": "Liver microsome [1]", "value": 27, "unit": "%"},
      {"measurement": "Stability", "setting": "Liver microsome [2]", "value": 2, "unit": "%"},
      {"measurement": "Papp", "setting": "[4]", "value": 1.7, "unit": "×10⁻⁶ cm/s"},
      {"measurement": "Stability", "setting": "[3]", "value": 56, "unit": "%"}
    ]},
    {"smiles": "NCCCC[C@H](N)C(=O)O.O=C(Nc1nnc(Cc2cc(F)cc(F)c2)s1)c1ccc(O[C@H]2CC[C@@H](C(=O)O)CC2)cc1", "values": [
      {"measurement": "bioavailability", "setting": "[5]", "value": 40, "unit": "%"},
      {"measurement": "Cmax", "setting": "[6]", "value": 13.2, "unit": "µM"},
      {"measurement": "Cmax", "setting": "[7]", "value": 4.2, "unit": "µM"},
      {"measurement": "Cmax", "setting": "[8]", "value": 0.16, "unit": "µM"},
      {"measurement": "Cmax", "setting": "[9]", "value": 14.3, "unit": "µM"},
      {"measurement": "Tmax", "setting": "[10]", "value": 4, "unit": "h"},
      {"measurement": "Cmax", "setting": "[11]", "value": 248, "unit": "µM"},
      {"measurement": "half-life", "setting": "[12]", "value": 7.4, "unit": "h"}
    ]}
  ]
}
